Experimental data from publication PMC6826492, “Experimental and Computational Study of the Antioxidative Potential of Novel Nitro and Amino Substituted Benzimidazole/Benzothiazole-2-Carboxamides with Antiproliferative Activity” (Antioxidants, 2019).
Where two headings read alike, the source gives them in different places.

Columns and labels:
HCT116 cell line [1] = test: Cellular ROS measurement assay (DCFH-DA, flow cytometry); format: cell-based, human; conditions: HCT116, 10 µM compounds (2 mM H2O2 positive control), 1 h, DCF-DA; *** p < 0.001, ns not significant
Experimental: Figure S53. Impact of compounds on cellular ROS production was measured with fluorescent dye DCF-DA in HCT116 cell line, after the treatment with 10 µM compounds for 1h. H 2O2 was used as a positive control. Data presented here are the results of 3 independent measurements, done in duplicates. One-way ANOVA with Tukey’s post-hoc test was used for statistical analysis, ***- p < 0.001. […]
Human colon carcinoma cell line HCT116 was grown in DMEM medium with the addition of 10% fetal bovine serum (FBS), 2 mM L-glutamine, 100 U/ml penicillin and 100 µg/ml streptomycin, and cultured as monolayers at 37°C in a humidified atmosphere with 5% CO2.
Cellular ROS measurement assay
For the cellular ROS measurement assay, 2.5 × 10^4 cells were seeded into 96-well microtiter plates 24h prior to experiment. Next day, cells were trypsinized and incubated in FBS-free DMEM medium with 20 µM DCFH-DA fluorescence dye for 45 minutes. After the incubation, compounds were added without washing and cells were treated with 2 mM H 2O2 as a positive control and 10 µM compounds 8, 14 and 26 for 1 hour. Cells were washed in PBS and DCFH-DA signal was measured by flow cytometry, in FL1 channel. […]

HCT116 cell line [2] = test: Mitochondrial ROS measurement assay (MitoSOX, flow cytometry); format: cell-based, human; conditions: HCT116, 10 µM compounds (3 µM Rotenone positive control), 1 h, *** p < 0.001, ns not significant
[3] = test system: HEK 293 (human embryonic kidney cells); test: Cytotoxic activity on non-cancerous cells (MTT assay); format: cell-based; conditions: for IC50: Homo sapiens, HEK293, non-tumor cell line, 72 h incubation, MTT, concentration that causes 50% growth inhibition
Experimental: (§1) The experiments were performed on four human cell lines, including HCT 116 (colon carcinoma), H 460 (lung carcinoma), MCF-7 (breast carcinoma), and HEK 293 (human embryonic kidney cells), in line with previously published experimental procedures. Briefly, the cells were grown in DMEM medium with the addition of 10% fetal bovine serum (FBS), 2 mM L-glutamine, 100 U/mL penicillin, and 100 µg/mL streptomycin, and cultured as monolayers at 37 °C in a humidified atmosphere with 5% CO2. Cells were seeded at 2 × 10^3 cells/well in a standard 96-well microtiter plates and left to attach for 24 h. The next day, a test compound was added in five serial 10-fold dilutions. The rate of cell growth was evaluated after 72 h of incubation with MTT assays. The obtained results are expressed as IC50 values, calculated from the concentration-response curve using linear regression analysis by fitting the test concentrations that give PG values above and below the reference value (i.e., 50%). Each test was performed in quadruplicate in at least two individual experiments.

[4] = Ferric reducing/antioxidant power (FRAP assay); format: biochemical; conditions: for FRAP: means ± standard deviation, absorbance at 593 nm
Experimental: The FRAP method was carried out according to previously described procedures with some modifications to be compatible with an assay on a 96-well microplate. All tests were done in triplicate, while the obtained results were averaged and reported as Fe^2+ equivalents (Fe^2+ µmol).
By using the FRAP assay, we investigated the reducing power of investigated systems, which was monitored by the corresponding changes in the absorbance at 593 nm. This method is based on the ability of systems to reduce the ferric tripyridyl triazine complex (TPTZ) to the ferrous state (Fe^2+), which can be seen by an intense blue color. […] Good reducing ability was shown by the trimethoxy substituted benzimidazole-2-carboxamide 14 bearing the amino group (1102.5 ± 14.1 mmolFe^2+/mmolC).

HCT 116 cells = test: Antioxidative activity assay in cells (TBHP-induced ROS, DCFH-DA); format: cell-based, human; conditions: 100 µM TBHP + 10 µM compound, 1 h, DCFH-DA fluorescence
Experimental: For the antioxidative activity assay, 2.5 × 10^4 cells were seeded into 96-well microtiter plates and left to attach for 24 h. The next day, cells were washed with PBS and incubated in FBS-free DMEM medium with 25 µM DCFH-DA fluorescence dye. After 45 min of incubation, medium was discarded, and cells were washed with PBS. After the washing step, cells were incubated with 100 µM tert-Butyl hydroperoxide (TBHP) alone or in combination with antioxidative agents (50 mM N-Acetyl-L-cysteine—NAC, or 10 µM tested compounds) in PBS, for 1 h at 37 °C. DCFH-DA fluorescence was recorded on a microplate fluorimeter reader (Tecan) with excitation beam of 485 nm, while the emitted fluorescence was collected at 535 nm. All tests were presented as medians of three independent measurements, done in triplicates. One-way ANOVA with Tukey’s post-hoc test was used for statistical analysis, * p < 0.05, ** p < 0.01, *** p < 0.001.
In order to test the antioxidant activity of selected systems in tumor cells (Figure 1), we treated HCT 116 cells with tert-Butyl hydroperoxide (TBHP), a substance commonly used for inducing oxidative stress in cells and tissues, alone or in a combination with a known antioxidative agent N-Acetyl-L-cysteine (NAC) or tested compounds [35]. We measured the formation of oxidative stress by-products using 2′,7′-dichlorodihydrofluorescein diacetate (DCFH-DA). We selected system 8 showing pronounced antiproliferative/cytotoxic activity, but no antioxidant capacity in DPPH/FRAP assays, 29 showing exceptionally pronounced antioxidative activity in DPPH/FRAP tests, 14 showing negligible antiproliferative but strong antioxidant capacity in both DPPH/FRAP assays, and 26 showing similarly strong antiproliferative and radical trapping activity in DPPH assay, but rather modest reducing power in FRAP assay. None of the compounds influenced the basal level of ROS in the cells. […] On the other hand, no effect was obtained upon treatment with either 8 or 14 (Figure 1). We additionally tested the impact of the selected compounds on cellular and mitochondrial ROS production in HCT 116 cells using fluorescent dyes, DCFH-DA for cellular and MitoSOX for mitochondrial ROS detection (Supplementary Materials, Figures S53 and S54).
Figure 1 Antioxidative activity of selected systems. HCT 116 cells were treated with the combination of tert-Butyl hydroperoxide (TBHP, 100 uM) and N-Acetyl-L-cysteine (NAC, 50 mM) or tested compounds 8, 14, 26, and 29 (10 µM) for 1 h. The level of reactive oxygen species (ROS) was measured with fluorescent dye 2′,7′-dichlorodihydrofluorescein diacetate (DCFH-DA) using fluorimeter. Treatment with 100 uM TBHP alone was used as a control for ROS induction. Data presented here are the results of three independent measurements, done in triplicates. […]

[5] = DPPH free radical scavenging; format: biochemical; parameters: key to DPPH IC50: –: Very low activity
Experimental: The reducing activity of investigated systems was achieved by the DPPH method according to previously described procedures with modifications to assure the use in a 96-well microplate. Briefly, equal volumes of various concentrations of tested molecules (dissolved in DMSO) were added to the solution of DPPH (final concentration 50 µM in absolute ethanol). Ethanol and DMSO were used as control solutions in line with earlier reports.

[6] = test system: HCT 116 (colon carcinoma); test: Antiproliferative activity in vitro (MTT assay); format: cell-based, human; conditions: 72 h incubation, concentration that causes 50% growth inhibition, read-out: IC50 HCT116
Experimental: as §1

H 460 (lung carcinoma) = test: Antiproliferative activity in vitro (MTT assay); format: cell-based, human; conditions: 72 h incubation, concentration that causes 50% growth inhibition
Experimental: as §1

MCF-7 (breast carcinoma) = test: Antiproliferative activity in vitro (MTT assay); format: cell-based, human; conditions: 72 h incubation, concentration that causes 50% growth inhibition
Experimental: as §1

[7] = DFT calculation of bond dissociation and ionization energies; conditions: difference to M12
Source text: All geometrical parameters were optimized employing the density functional theory (DFT) B3LYP functional (unrestricted UB3LYP for the radicals), together with the 6–31+G(d) basis set, followed by the vibrational analysis using the Gaussian 16 software. Thermal corrections were extracted from the matching uncorrected vibrational frequencies, also used to confirm the obtained structures as true minima by the lack of imaginary frequencies. The final electronic energies were refined through single-point calculations with a highly flexible 6–311++G(2df,2pd) basis set. Solvent effects were considered through the implicit SMD polarizable continuum model with all parameters for pure ethanol (ε = 24.852), giving the B3LYP/6–311++G(2df,2pd)//(SMD)/B3LYP/6–31+G(d) model employed here, being fully in line with our earlier reports. As such, all computational values correspond to differences in Gibbs free energies obtained at a room temperature of 298 K and a normal pressure of 1 atm. The choice of this computational setup was additionally prompted by its success in modeling mechanisms of various antioxidants, and in reproducing kinetic and thermodynamic parameters of a variety of organic and enzymatic reactions. According to the literature, there are several mechanisms that relate to the antioxidative properties of molecules. Here, we inspected the two most frequent, and usually thermodynamically most preferred antioxidant mechanisms, namely hydrogen atom transfer (HAT), and single electron transfer (SET) that is commonly followed by proton transfer (SET-PT). All these mechanisms result in the formation of the same antioxidant radical.
HAT is a major route where the H atom (hydrogen radical, H•) is directly transferred from an antioxidant (M) to a free radical accompanied by the homolytic M–H bond cleavage. The capacity of this process is governed by the M–H bond dissociation energy (BDE), calculated as:M–H → M• + H• BDE = G(M•) + G(H•) − G(M–H).
Scavenging the free radicals can also be accomplished by donating an electron from a system M in the SET-PT process. This process is driven by the adiabatic ionization energy (IE) necessary to eject a single electron from M, calculated as:M → M•^+ + e^− IE = G(M•^+) − G(M).

three human cancer cells = test: Antiproliferative activity in vitro, range over the tumor cell lines; format: cell-based; conditions: HCT116, MCF-7, H 460
Experimental: as §1

[8] = after 30 min of incubation with 100 μM DPPH

Row | Structure (SMILES) | cellular ROS production (significance vs control) (HCT116 cell line [1]) | mitochondrial ROS production (significance vs control) (HCT116 cell line [2]) | IC50 [3] [µM] | FRAP [4] [mmolFe^2+/mmolC] | ROS levels when oxidative stress was induced (HCT 116 cells) | IC50 [5, 8] [µM] | IC50 ([6]; Homo sapiens, HCT-116, 72 h) [µM] | IC50 (H 460 (lung carcinoma); Homo sapiens, NCI-H460, 72 h) [µM] | IC50 (MCF-7 (breast carcinoma); Homo sapiens, MCF7, 72 h) [µM] | BDE increase relative to M12 [7] [kcal/mol] | FRAP reducing power in comparison to standard BHT ([4]; relative to BHT) | IC50 (three human cancer cells) [µM] | IC50 [6] [µM] | IC50 (H 460 (lung carcinoma)) [µM] | IC50 (MCF-7 (breast carcinoma)) [µM] | antioxidant potency relative to 17 ([5]; DPPH, 14 vs 17) | lower activity towards HEK293 cells than towards HCT116 cells (times) ([3]; HEK293 vs HCT116) | DPPH IC50 [5, 8]
1 | COc1c(O)cc(C(=O)Nc2nc3ccc([N+](=O)[O-])cc3[nH]2)cc1O [Compound 26, 3,5-dihydroxy-4-methoxy-N-[5(6)-nitrobenzimidazol-2-yl]benzamide] | ns | ns | 3 ± 0.7 | 244.9 ± 4.8 | significantly reduced the ROS levels | 8.1 ± 1.9 | 4 ± 0.1 | 3 ± 0.5 | 3 ± 1 |  |  |  |  |  |  |  |  | 
2 | O=C(Nc1nc2ccc([N+](=O)[O-])cc2s1)c1cc(O)c(O)c(O)c1 [Compound 29, 3,4,5-trihydroxy-N-(6-nitrobenzothiazol-2-yl)benzamide] |  |  | 6 ± 4 | 6139.2 ± 3.0 | significantly reduced the ROS levels | 2 ± 0.15 | 7 ± 1 | 2 ± 1 | 4 ± 0.7 | 0.8 | threefold higher |  |  |  |  |  |  | 
3 | COc1ccccc1C(=O)Nc1nc2ccc(N)cc2s1.Cl [Compound 21, N-(6-aminobenzothiazol-2-yl)-2-methoxybenzamide hydrochloride] |  |  | 25 ± 1.5 | 214.3 ± 3.4 |  | 12 ± 1.1 |  |  |  |  |  | 3 to 10 | 10 ± 8 | 4 ± 0.1 | 3 ± 0.7 |  |  | 
4 | COc1cc(C(=O)Nc2nc3ccc(N)cc3[nH]2)cc(OC)c1OC [Compound 14, N-[5(6)-aminobenzimidazol-2-yl]-3,4,5-trimethoxybenzamide] | ns | ns | 43 ± 2 | 1102.5 ± 14.1 | no effect | 10.7 ± 0.23 | 76 ± 24 | > 100 | 43 ± 15 |  |  |  |  |  |  | around four times |  | 
5 | COc1cc(C(=O)Nc2nc3ccc([N+](=O)[O-])cc3[nH]2)cc(OC)c1OC [Compound 8, 3,4,5-trimethoxy-N-[5(6)-nitrobenzimidazol-2-yl]benzamide] | ns | ns | 2 ± 0.5 | 89.7 ± 6.2 | no effect |  | 0.6 ± 0.03 | 2 ± 0.2 | 1 ± 0.2 |  |  | 0.6 to 2 |  |  |  |  | ≈ 3 times | –
